“Also recorded” adds a separate entry of the source. Values belong to the compound of their own block, whether it stands above or below them.
Assays:
MHC class II [1] = assay: IFN-γ-induced MHC class II expression on PTEC, flow cytometry; format: cell-based
Experimental: (§1) Proximal tubular epithelial cells were cultured according to the methods described by Detrisac et al. (25). In short: PTEC were grown on tissue culture flasks that had been coated with collagen I (Sigma St. Louis Mo.) and Foetel Calf Serum (FCS, from Gibco BRL). The culture medium consisted of Dulbeco's eagle's medium and Ham's medium (both from Gibco BRL) in a 1:1 ratio, supplemented with insulin ([…]), transferrin (5 μg/ml), selenium (5 ng/ml), hydrocortisone (36 ng/ml), triiodothyronine (4 pg/ml) epidermal growth factor (10 ng/ml), and penicillin/streptomycin (5 IE/ml, 5 μg/ml) (all from Sigma). The cell lines were acquired from multiple sources including biopsy tissue pretransplant, allografts unsuitable for transplantation and from grossly normal surgical nephrectomy specimens. Experiments were performed using cells from passages one to four. PTEC were characterized by positive staining for the epithelial membrane antigen (EMA, Dako Glostrup Denmark) and the adenosinedeaminase binding protein (kindly provided by Dr. Dinjens, University Hospital Maastricht, the Netherlands).
(§2) Confluent monolayers of PTEC or HUVEC were trypsinized and seeded in 24-well plates. Upon confluency the cells were stimulated with IFN-γ (Sigma, St. Louis Mo.) for […] in the presence or absence various concentrations of heparinoids in various Heparin (Heparin-Braun®) was purchased from Braun Melsungen (Melsungen, Germany), low molecular weight heparin (Fragmin® P) from Pfrimmer Kabi (Erlangen, Germany), and modified low molecular weight heparins (Knoll AG Ludwigshafen, Germany).
(§3) In some experiments the culture medium was supplemented with sodium chlorate in order to inhibit sulfation of cellbound HSPG. Chlorate was used in concentrations between 50 to 150 mM for 24 hours before addition of IFN-γ and was present during the stimulation period. Sodium chloride was used as osmolarity control. Cultured cells were recovered by brief treatment with trypsin-EDTA for flow cytometry analysis.
(§4) Cells were pooled, divided into two tubes and washed. Isotype matched irrelevant antibodies conjugated to RPE and FITC (from Dako, Glostrup, Denmark) and Cy-5 (from Dianowa, Hamburg, Germany) were added to the first tube which was used as negative control for the FACS settings. Cells from the second tube were labelled with antibodies against MHC class I (RPE-conjugated, W6, 32, Dako), MHC class II (Cy-5-conjugated, CR3/43, Dianova) and ICAM 1 (FITC-conjugated, Dianova) in concentrations according to the instructions of the manufacturer. After incubation for 30 min at 4° C. the cells were washed and analysed by flow cytometry (FACScan, Becton Dickinson); a minimum of 10000 event were analysed. The results are expressed as mean fluorescence intensity (MFI).

ICAM-1 [2] = assay: IFN-γ-induced ICAM-1 expression on PTEC, flow cytometry; format: cell-based
Experimental: as §1, §2, §3, §4

MHC class I [3] = assay: IFN-γ-induced MHC class I expression on PTEC, flow cytometry; format: cell-based
Experimental: as §1, §2, §3, §4

ICAM-1 [4] = assay: IFN-γ-induced ICAM-1 expression on HUVEC, flow cytometry; format: cell-based, Human; settings: for upregulation of ICAM-1 by IFN-γ: HUVEC, 72 hours
Experimental: (§5) Human umbilical vein endothelial cells were prepared from fresh umbilical cord using the methods described by Jaffe et al (26). Briefly, endothelial cells were isolated from umbilical veins by digestion with collagenase V (Sigma, St. Louis Mo.) for 20 minutes at 37° C. Thereafter the vein was flushes with sterile medium to collect endothelial cells. The culture medium consisted of Medium 199 (Gibco BRL) supplemented with 1% FCS, Endothelial Cell Growth Factor and antibiotics (penicillin-streptomycin). The cells were cultured in 25 cm^2 flasks that had been coated with 1% gelatine (Sigma, St. Louis Mo.).
(§6) All experiments were performed with cells from passage three to six. HUVEC were characterized on the basis of positive staining for factor VIII-related antigen (Dako, High Wycombe, UK) and the endothelial marker EN4 (CD31).
as §2, §4

^125 I-IFN-γ = assay: Dotblot analysis: binding of 125I-IFN-γ to GAG on nitrocellulose; settings: 1 μl of 1 mg/ml on nitrocellulose, 1 hour at 4° C.
Experimental: Small strips of nitrocellulose membranes were prepared and 1 μl of heparin, fragmin and the carious GAGS (all in a concentration of 1 mg/ml) were applied onto the strip. After air drying, the strips were fixed in 1% glutaraldehyde +0.5% cetylpyridinium chloride to prevent GAG loss and washed in Tris buffer. The non-occupied protein binding sites were blocked with 5% BSA in PBS for 30 min at 37° C. The strips were subsequently incubated with ^125 I IFN-γ for 1 hour at 4° C. in the presence or absence of heparin. Hereafter the strips were extensively washed with Tris buffer and exposed to a Kodak film.

MHC class I [5] = assay: IFN-γ-induced MHC class I expression on HUVEC, flow cytometry; format: cell-based, Human; settings: for upregulation of MHC class I by IFN-γ: HUVEC, 72 hours
Experimental: as §5, §6, §2, §4

MHC class II [6] = assay: IFN-γ-induced MHC class II expression on HUVEC, flow cytometry; format: cell-based, Human; settings: for induction of MHC class II by IFN-γ: HUVEC, 72 hours
Experimental: as §5, §6, §2, §4

[7] = PTEC, 150 mM NaClO3 from one day before and during stimulation, IFN-γ 0 to 10 ng/ml, 72 hours
[8] = 50 ng/ml of IFN-γ, 72 hours, no GAG
[9] = PTEC, 10 ng/ml IFN-γ, 72 hours, test substance 0.03 mg/ml
[10] = PTEC, 10 ng/ml IFN-γ, 72 hours, test substance 3 mg/ml
[11] = 10 ng/ml IFN-γ, test substance 3 mg/ml
[12] = 100 ng/ml IFN-γ, heparin 0.03 to 3 mg/ml

Compound: [Na+].[O-][Cl+2]([O-])[O-] [NaClO3, sodium chlorate]
modulation of MHC class II expression by IFN-γ in comparison to NaCl treated cultures (MHC class II [1]; [7]): significantly reduced
modulation of ICAM-1 expression by IFN-γ in comparison to NaCl treated cultures (ICAM-1 [2]; [7]): significantly reduced
modulation of MHC class I expression by IFN-γ in comparison to NaCl treated cultures (MHC class I [3]; [7]): significantly reduced

Compound: IFN-γ: IFN-γ (Sigma), stimulus for MHC and ICAM-1 expression
MHC class II expression on PTEC (MHC class II [1]; [8]): induced
ICAM-1 expression on PTEC (ICAM-1 [2]; [8]): upregulated
MHC class I expression on PTEC (MHC class I [3]; [8]): upregulated

binding of 125I-IFN-γ with coincubation of a 3000 fold excess of fluidphase heparin (^125 I-IFN-γ): strongly reduced
binding of 125I-IFN-γ (^125 I-IFN-γ; absence of fluidphase heparin): can bind
Compound: heparin
MHC class II expression after IFN-γ stimulation (MHC class II [1]; [9]): did not significantly inhibit
induction of MHC class II by IFN-γ (MHC class II [1]; [10]): able to inhibit
induction of MHC class II by IFN-γ (MHC class II [1]; PTEC, 100 ng/ml IFN-γ): able to inhibit
upregulation of ICAM-1 by IFN-γ (ICAM-1 [4]; [11]): able to inhibit
upregulation of ICAM-1 by IFN-γ (ICAM-1 [4]; [12]): completely abolished
ICAM-1 expression in the absence of IFN-γ (ICAM-1 [4]; unstimulated HUVEC): no influence
upregulation of MHC class I by IFN-γ (MHC class I [5]; [11]): able to inhibit
upregulation of MHC class I by IFN-γ (MHC class I [5]; [12]): completely abolished
MHC class I expression in the absence of IFN-γ (MHC class I [5]; unstimulated HUVEC): no influence
induction of MHC class II by IFN-γ (MHC class II [6]; [11]): able to inhibit
induction of MHC class II by IFN-γ (MHC class II [6]; [12]): able to inhibit
MHC class II expression in the absence of IFN-γ (MHC class II [6]; unstimulated HUVEC): no influence
upregulation of ICAM-1 by IFN-γ (ICAM-1 [2]; [9]): significantly inhibited
upregulation of ICAM-1 by IFN-γ (ICAM-1 [2]; [10]): able to inhibit
upregulation of ICAM-1 by IFN-γ (ICAM-1 [2]; PTEC, 100 ng/ml IFN-γ): able to inhibit
MHC class I expression after IFN-γ stimulation (MHC class I [3]; [9]): did not significantly inhibit
upregulation of MHC class I by IFN-γ (MHC class I [3]; [10]): only a marginal influence; also recorded: able to inhibit
upregulation of MHC class I by IFN-γ (MHC class I [3]; PTEC, 100 ng/ml IFN-γ): not influenced
